Holding throughout (type): biochemical
For one assay, the target named is T1, human amylin (Homo sapiens, UniProt P10997).
T1 construct: Mature, fully processed, Amylin is 37 residues in length, contains a disulfide bond between residues 2 and 7; made in house; host or cells: chemical solid-phase peptide synthesis (Fmoc), no expression host
T1 sequence (P10997 34-70 limits assumed): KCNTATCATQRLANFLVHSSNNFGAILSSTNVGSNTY
Nature of the assay: Right angle light scattering assay (RALS) without thioflavin-T. The following applies: 20-fold excess of aspirin (320 μM), amylin 16 μM, no thioflavin-T. The protocol: Solutions were prepared by adding pH 7.4, 20 mM Tris buffer without thioflavin-T to lyophilized dry peptides for a final peptide concentration of 16 […] used an excitation and emission wavelength of 500 nm.

In another assay the target is T2, human IAPP (amylin) (Homo sapiens, UniProt P10997).
T2 construct: Mature, fully processed, Amylin is 37 residues in length, contains a disulfide bond between residues 2 and 7; made in house; host or cells: chemical solid-phase peptide synthesis (Fmoc), no expression host
T2 sequence (P10997 34-70 limits assumed): T1 sequence (P10997 34-70 limits assumed)
The assay is described as follows: Transmission electron microscopy of amyloid fibrils. As to conditions: 20-fold excess of NSAID over human IAPP, end of kinetic experiment. The protocol:
TEM was performed at the Life Science Microscopy Center at Stony Brook University. Aliquots were removed from the same solutions that were used for the fluorescence measurements. 5 μL of peptide solution was placed on carbon-coated Formvar 300 mesh copper grid for one minute and then negatively stained with saturated uranyl acetate for another one minute.

In assay [1] the target is T3, pre-formed human amylin amyloid fibrils (Homo sapiens, UniProt P10997).
T3 construct: Mature, fully processed, Amylin is 37 residues in length, contains a disulfide bond between residues 2 and 7; made in house; host or cells: chemical solid-phase peptide synthesis (Fmoc), no expression host
T3 sequence (P10997 34-70 limits assumed): T1 sequence (P10997 34-70 limits assumed)
Nature of the assay: Disaggregation of pre-formed amylin amyloid fibrils (thioflavin-T and TEM). As to conditions: 20-fold excess added after amyloid formation was complete, up to 48 hours.
Description: Solutions were prepared by adding pH 7.4, 20 mM Tris buffer and thioflavin-T to lyophilized dry peptides for a final peptide concentration of 16 M. For the studies of Aspirin and Ketoprofen, 0.25% DMSO was present in the solution. Measurements were made at 25° C. using a Beckman Coulter DTX880 plate reader without stirring. An excitation filter of 430 nm and an emission filter of 485 nm were used.

Another assay deals with T4, human IAPP (Homo sapiens, UniProt P10997).
T4 construct: Mature, fully processed, Amylin is 37 residues in length, contains a disulfide bond between residues 2 and 7; made in house; host or cells: chemical solid-phase peptide synthesis (Fmoc), no expression host
T4 sequence (P10997 34-70 limits assumed): T1 sequence (P10997 34-70 limits assumed)
The assay is described as follows: Fluorescence detected thioflavin-T assay of the time course of amyloid formation. The following applies: pH 7.4, 25° C. The protocol: Peptides were first dissolved in 100% hexafluoroisopropanol (HFIP) at a concentration 1.6 mM and then filtered to remove any preformed amyloid aggregates. For thioflavin-T fluorescence assays, aliquots were lyophilized and redissolved in pH 7.4, 20 mM Tris-HCl buffer at the desired concentration. Aspirin and Ketoprofen were prepared in 100% dimethyl sulfoxide (DMSO).
Solutions were prepared by adding pH 7.4, 20 mM Tris buffer and thioflavin-T to lyophilized dry peptides for a final peptide concentration of […]. For the studies of Aspirin and Ketoprofen, 0.25% DMSO was present in the solution. Measurements were made at 25° C. using a Beckman Coulter DTX880 plate reader without stirring. An excitation filter of 430 nm and an emission filter of 485 nm were used. To test disaggregate activity of Aspirin, peptide was first incubated in low-binding 96-wells plate and monitored by plate reader to ensure the formation of amyloid fibrils.
A mixture of flurbiprofen (1-20 parts) and human IAPP (1 part) was monitored by fluorescence detected thioflavin-T assays. The assays monitored the time course of amyloid formation (amount vs time) in the presence and absence of flurbiprofen.
A mixture of OH-flurbiprofen and human IAPP were monitored by fluorescence detected thioflavin-T assays. Three different concentrations (1:1 ratio, 1:10 ratio and 1:20 ratio of IAPP to OH-flurbiprofen) were tested against human IAPP without any added OH-flurbiprofen. The assays monitored the time course of amyloid formation (amount vs time) in the presence and absence of a flurbiprofen derivative.
Three different mixtures of NSAIDs (20 parts) and human IAPP (1 parts) were compared to each other and human IAPP alone by fluorescence detected thioflavin-T assays. The assays monitored the time course of amyloid formation (amount vs time) in the presence and absence of aspirin, naproxen and flurbiprofen.

The structures appear in SMILES notation. Entries after “also recorded” stand apart in the source; their conditions may differ.

On to `CC(=O)Oc1ccccc1C(=O)O` [Aspirin], for which, on human amylin, the “aggregation curves by right angle light scattering” value is “does not inhibit amyloid formation by human amylin”. Further, the “amyloid fibrils by TEM in presence of NSAID” value is reported as “no changes in amyloid formation” on human IAPP (amylin) and “Extensive matts of fibrils; also recorded: does not inhibit IAPP amyloid formation” on human IAPP (amylin) (listed as aspirin). Besides, the entries for the “disaggregation of pre-formed amylin amyloid fibrils” value in assay [1] and in assay [1] (listed as aspirin) were “unable to disassemble pre-formed amylin amyloid; also recorded: does not disaggregate pre-formed human amylin amyloid fibrils” and “does not disaggregate amylin amyloid; also recorded: no effect on the thioflavine-T signal”, respectively. On human IAPP (20 to 1 ratio of NSAID to human IAPP), the “inhibition of amyloid formation by human IAPP (amylin)” value was “do not inhibit amylin amyloid formation; also recorded: no inhibition of amyloid; also recorded: does not inhibit amyloid formation by human amylin”. The “final thioflavin-T intensity” value at human IAPP (amylin 16 μM, aspirin up to 20-fold excess, 0.25% DMSO) is listed as “no detectable effect on the final thioflavin-T intensity”. The “rate of amyloid formation as judged by T50” value at human IAPP (amylin 16 μM, aspirin up to a 20-fold excess) is “no detectable effect on the rate of amyloid formation”.

The values are drawn from patent publication US20160038448A1, “THE INHIBITION OF THE TOXIC EFFECTS OF ISLET AMYLOID FORMATION BY FLURBIPROFEN AND FLURBIPROFEN DERIVATIVES” (The Research Foundation for the State University of New York, priority 2013, published 2016).
